Data: patent US20120040955A1 (priority 2009, published 2012)
pIC50: −log10 of the molar value.

Assays:
[1] = biological target: T1, JAK2 (Homo sapiens, UniProt O60674); test: kinobeads assay (competition with affinity matrix in mixed Molt4/Ramos cell lysate, dot blot detection), JAK2; type: binding; conditions: activity level
T1 construct: endogenous in cells; host or cells: Mixed Molt4 / Ramos cell lysate (1:2)
Protocol: (§1) The compounds of the present invention as described in the previous examples were tested in a kinobeads assay as described for ZAP-70 (WO-A 2007/137867). Briefly, test compounds (at various concentrations) and the affinity matrix with the immobilized aminopyrido-pyrimidine ligand 24 were added to cell lysate aliquots and allowed to bind to the proteins in the lysate sample. After the incubation time the beads with captured proteins were separated from the lysate. Bound proteins were then eluted and the presence of, JAK2 and JAK3 was detected and quantified using specific antibodies in a dot blot procedure and the Odyssey infrared detection system. Dose response curves for individual kinases were generated and IC50 values calculated. Kinobeads assays for ZAP-70 (WO-A 2007/137867) and for kinase selectivity profiling (WO-A 2006/134056) have been previously described.
(§2) 5× DP buffer: 250 mM Tris-HCl pH 7.4, 25% Glycerol, 7.5 mM MgCl2, 750 mM NaCl, 5 mM Na3VO4; filter the 5× DP buffer through a 0.22 μm filter and store in aliquots at −80° C. The 5× DP buffer is diluted with H2O to 1× DP buffer containing 1 mM DTT and 25 mM NaF.
(§3) Stock solutions of test compounds were prepared in DMSO. In a 96 well plate 30 μl solution of diluted test compounds at 5 mM in DMSO were prepared. Starting with this solution a 1:3 dilution series (9 steps) was prepared. For control experiments (no test compound) a buffer containing 2% DMSO was used.
(§4) Molt4 cells (ATCC catalogue number CRL-1582) and Ramos cells (ATCC catalogue number CRL-1596) were grown in 1 litre Spinner flasks (Integra Biosciences, #182101) in suspension in RPMI 1640 medium (Invitrogen, #21875-034) supplemented with 10% Fetal Bovine Serum (Invitrogen) at a density between 0.15×10^6 and 1.2×10^6 cells/ml. Cells were harvested by centrifugation, washed once with 1× PBS buffer (Invitrogen, #14190-094) and cell pellets were frozen in liquid nitrogen and subsequently stored at −80° C. Cells were homogenized in a Potter S homogenizer in lysis buffer: 50 mM Tris-HCl, 0.8% NP40, 5% glycerol, 150 mM NaCl, 1.5 mM MgCl2, 25 mM NaF, 1 mM sodium vanadate, 1 mM DTT, pH 7.5. One complete EDTA-free tablet (protease inhibitor cocktail, Roche Diagnostics, 1873580) per 25 ml buffer was added. The material was dounced 10 times using a mechanized POTTER S, transferred to 50 ml falcon tubes, incubated for 30 minutes on ice and spun down for 10 min at 20,000 g at 4° C. (10,000 rpm in Sorvall SLA600, precooled). The supernatant was transferred to an ultracentrifuge (UZ)-polycarbonate tube (Beckmann, 355654) and spun for 1 hour at 100.000 g at 4° C. (33.500 rpm in Ti50.2, precooled). The supernatant was transferred again to a fresh 50 ml falcon tube, the protein concentration was determined by a Bradford assay (BioRad) and samples containing 50 mg of protein per aliquot were prepared. The samples were immediately used for experiments or frozen in liquid nitrogen and stored frozen at −80° C.
(§5) Cell lysate (approximately 50 mg protein per plate) was thawed in a water bath at room temperature and then kept on ice. To the thawed cell lysate 1× DP 0.8% NP40 buffer containing protease inhibitors (1 tablet for 25 ml buffer; EDTA-free protease inhibitor cocktail; Roche Diagnostics 1873580) was added in order to reach a final protein concentration of 5 mg/ml total protein. The diluted cell lysate was stored on ice. Mixed Molt4/Ramos lysate was prepared by combining one volume of Molt4 lysate and two volumes of Ramos lysate (ratio 1:2).
(§6) To a 96 well filter plate (Multiscreen HTS, BV Filter Plates, Millipore #MSBVN1250) were added per well: 100 μl affinity matrix (3% beads slurry), 3 μl of compound solution, and 50 μl of diluted lysate. Plates were sealed and incubated for three hours in a cold room on a plate shaker (Heidolph tiramax 1000) at 750 rpm. Afterwards the plate was washed twice with 230 μl washing buffer (1× DP 0.4% NP40). […]

[2] = biological target: T2, JAK3 (Homo sapiens, UniProt P52333); test: kinobeads assay (competition with affinity matrix in mixed Molt4/Ramos cell lysate, dot blot detection), JAK3; type: binding; conditions: activity level
T2 construct: endogenous in cells; host or cells: Mixed Molt4 / Ramos cell lysate (1:2)
T2 sequence (P52333 1-1124): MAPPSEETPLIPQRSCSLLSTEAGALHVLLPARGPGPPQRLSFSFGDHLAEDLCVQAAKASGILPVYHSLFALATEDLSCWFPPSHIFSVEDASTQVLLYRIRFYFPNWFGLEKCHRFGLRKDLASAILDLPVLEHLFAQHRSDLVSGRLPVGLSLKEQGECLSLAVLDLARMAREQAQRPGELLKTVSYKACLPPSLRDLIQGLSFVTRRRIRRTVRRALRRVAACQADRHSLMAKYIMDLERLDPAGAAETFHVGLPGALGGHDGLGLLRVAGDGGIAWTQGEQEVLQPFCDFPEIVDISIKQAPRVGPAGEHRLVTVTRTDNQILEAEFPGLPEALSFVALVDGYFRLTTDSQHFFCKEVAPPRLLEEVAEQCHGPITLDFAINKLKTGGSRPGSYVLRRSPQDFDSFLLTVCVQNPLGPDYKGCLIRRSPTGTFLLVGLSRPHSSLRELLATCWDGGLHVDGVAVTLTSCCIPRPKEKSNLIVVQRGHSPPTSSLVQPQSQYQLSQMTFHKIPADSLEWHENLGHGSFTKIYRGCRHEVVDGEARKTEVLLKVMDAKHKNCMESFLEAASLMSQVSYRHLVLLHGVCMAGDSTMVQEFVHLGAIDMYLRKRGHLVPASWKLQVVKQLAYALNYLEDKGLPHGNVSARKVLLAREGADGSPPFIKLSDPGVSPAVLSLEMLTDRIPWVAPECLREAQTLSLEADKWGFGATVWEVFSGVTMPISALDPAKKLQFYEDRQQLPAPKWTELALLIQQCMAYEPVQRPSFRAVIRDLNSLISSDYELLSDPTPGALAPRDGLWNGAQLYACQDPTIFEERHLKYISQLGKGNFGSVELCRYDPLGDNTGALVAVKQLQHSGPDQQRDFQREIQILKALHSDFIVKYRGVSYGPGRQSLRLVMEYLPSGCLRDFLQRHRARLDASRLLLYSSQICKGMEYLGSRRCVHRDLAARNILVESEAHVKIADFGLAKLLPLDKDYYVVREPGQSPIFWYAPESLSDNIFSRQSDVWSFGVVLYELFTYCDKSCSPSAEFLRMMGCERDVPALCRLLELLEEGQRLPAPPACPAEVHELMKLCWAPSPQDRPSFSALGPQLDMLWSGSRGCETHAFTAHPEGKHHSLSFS
Protocol: as §1, §2, §3, §4, §5, §6

T1 sequence (O60674 whole entry): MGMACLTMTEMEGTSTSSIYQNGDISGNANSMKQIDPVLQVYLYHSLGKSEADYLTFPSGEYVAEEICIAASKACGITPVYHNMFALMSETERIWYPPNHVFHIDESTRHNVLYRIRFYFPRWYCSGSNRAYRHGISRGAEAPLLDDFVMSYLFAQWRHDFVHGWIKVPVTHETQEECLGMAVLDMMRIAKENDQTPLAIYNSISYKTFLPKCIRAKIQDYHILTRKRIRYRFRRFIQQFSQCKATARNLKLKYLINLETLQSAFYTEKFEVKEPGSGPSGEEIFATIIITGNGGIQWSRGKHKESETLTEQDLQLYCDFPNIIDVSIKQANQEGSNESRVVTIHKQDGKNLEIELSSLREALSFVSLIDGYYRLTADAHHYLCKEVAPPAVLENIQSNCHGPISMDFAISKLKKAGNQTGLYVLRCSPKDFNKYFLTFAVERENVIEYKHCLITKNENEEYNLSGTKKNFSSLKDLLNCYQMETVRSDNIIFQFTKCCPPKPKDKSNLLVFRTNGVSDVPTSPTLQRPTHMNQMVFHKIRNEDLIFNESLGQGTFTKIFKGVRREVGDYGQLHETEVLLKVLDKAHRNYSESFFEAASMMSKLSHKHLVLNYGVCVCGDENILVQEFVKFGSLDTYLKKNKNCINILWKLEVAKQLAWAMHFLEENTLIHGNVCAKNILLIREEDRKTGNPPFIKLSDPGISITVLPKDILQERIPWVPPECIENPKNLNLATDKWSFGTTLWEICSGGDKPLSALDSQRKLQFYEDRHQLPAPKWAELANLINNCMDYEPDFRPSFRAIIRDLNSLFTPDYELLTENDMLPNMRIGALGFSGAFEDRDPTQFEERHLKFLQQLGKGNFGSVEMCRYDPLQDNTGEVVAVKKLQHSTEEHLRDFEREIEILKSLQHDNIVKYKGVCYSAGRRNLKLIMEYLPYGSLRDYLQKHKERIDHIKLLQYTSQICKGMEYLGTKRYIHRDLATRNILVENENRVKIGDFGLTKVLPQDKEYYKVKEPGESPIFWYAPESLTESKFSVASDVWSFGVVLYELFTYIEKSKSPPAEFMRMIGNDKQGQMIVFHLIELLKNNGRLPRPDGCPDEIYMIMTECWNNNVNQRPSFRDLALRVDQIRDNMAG

pIC50 [1]	pIC50 [2]	SMILES
5.00 to 6.00	> 7.00	CC(C)NC(=O)c1ccc(Nc2ncc(Cl)c(Nc3ccccc3NS(C)(=O)=O)n2)c(F)c1F [Example 58, 4-((5-chloro-4-((2-(methylsulfonamido)phenyl)amino)pyrimidin-2-yl)amino)-2,3-difluoro-N-isopropylbenzamide]
< 5.00	6.00 to 7.00	CCS(=O)(=O)Nc1ccccc1Nc1nc(Nc2cc(C(=O)N3CCCC3)ccc2F)ncc1Cl [Example 41, N-(2-(5-chloro-2-(2-fluoro-5-(pyrrolidine-1-carbonyl)phenylamino)pyrimidin-4-ylamino)phenyl)ethanesulfonamide]
< 5.00	6.00 to 7.00	CS(=O)(=O)Nc1ccccc1Nc1nc(Nc2cc(C(=O)NC3CC3)ccc2F)ncc1F [Example 32, 3-(5-fluoro-4-(2-(methylsulfonamido)phenylamino)pyrimidin-2-ylamino)-N-cyclopropyl-4-fluorobenzamide]
< 5.00	> 7.00	Cc1cccc(Nc2nc(Nc3cc(C(=O)NCCO)ccc3F)ncc2Cl)c1NS(C)(=O)=O [Example 59, 3-((5-chloro-4-((3-methyl-2-(methylsulfonamido)phenyl)amino)pyrimidin-2-yl)amino)-4-fluoro-N-(2-hydroxyethyl)benzamide]
< 5.00	6.00 to 7.00	CCS(=O)(=O)Nc1ccccc1Nc1nc(Nc2cc(C#N)ccc2F)ncc1Cl [Example 43, N-(2-(5-chloro-2-(5-cyano-2-fluorophenylamino)pyrimidin-4-ylamino)phenyl)ethanesulfonamide]
< 5.00	6.00 to 7.00	CS(=O)(=O)Nc1ccccc1Nc1nc(Nc2ccc(C#N)cc2F)ncc1Cl [Example 26, N-(2-(5-chloro-2-(4-cyano-2-fluorophenylamino)pyrimidin-4-ylamino)phenyl)methanesulfonamide]
< 5.00	> 7.00	CS(=O)(=O)Nc1ccccc1Nc1nc(Nc2cc(C(N)=O)ccc2F)ncc1Cl [Example 18, 3-(5-chloro-4-(2-(methylsulfonamido)phenylamino)pyrimidin-2-ylamino)-4-fluorobenzamide]
5.00 to 6.00	6.00 to 7.00	CNC(=O)c1ccc(F)c(Nc2ncc(Cl)c(Nc3cc(F)c(F)cc3NS(C)(=O)=O)n2)c1 [Example 63, 3-(5-chloro-4-(4,5-difluoro-2-(methylsulfonamido)phenylamino)pyrimidin-2-ylamino)-4-fluoro-N-methylbenzamide]
< 5.00	6.00 to 7.00	CS(=O)(=O)Nc1ccccc1Nc1nc(Nc2cc(C(N)=O)ccc2F)ncc1F [Example 29, 4-fluoro-3-(5-fluoro-4-(2-(methylsulfonamido)phenylamino)pyrimidin-2-ylamino)benzamide]
5.00 to 6.00	6.00 to 7.00	CS(=O)(=O)Nc1c(F)cc(F)cc1Nc1nc(Nc2cc(C(=O)NC3CC3)ccc2F)ncc1Cl [Example 62, 3-((5-chloro-4-((3,5-difluoro-2-(methylsulfonamido)phenyl)amino)pyrimidin-2-yl)amino)-N-cyclopropyl-4-fluorobenzamide]
5.00 to 6.00	> 7.00	CS(=O)(=O)Nc1ccccc1Nc1nc(Nc2cc(C(=O)NCC#N)ccc2F)ncc1Cl [Example 25]
6.00 to 7.00	> 7.00	COc1ccc(Nc2nc(Nc3cc(-n4cnnn4)ccc3F)ncc2Cl)c(NS(C)(=O)=O)c1 [Example 10, N-(2-(5-chloro-2-(2-fluoro-5-(1H-tetrazol-1-yl)phenylamino)pyrimidin-4-ylamino)-5-methoxyphenyl)methanesulfonamide]
5.00 to 6.00	> 7.00	CS(=O)(=O)Nc1ccccc1Nc1nc(Nc2cc(C(=O)N3CCCCC3)ccc2F)ncc1Cl [Example 17, N-(2-(5-chloro-2-(2-fluoro-5-(piperidine-1-carbonyl)phenylamino)pyrimidin-4-ylamino)phenyl)methanesulfonamide]
